{"source": "patent US8889156B2", "about": "“Calcium-binding agents induce hair growth and/or nail growth” (priority 2009, dated 2014)", "key": {"[1]": {"test": "Nucleation of hydroxyapatite on tooth enamel (SBFn/SBFg, SEM)", "design": "species or system human", "settings": "demineralized enamel, 12.5 μM peptide", "method": "(§1) To determine whether applying DSS to various preparations of tissue promoted HA nucleation, that could ultimately lead to tissue remineralization, sagittally sectioned adult human teeth (obtained after extraction during normal clinical practice) were polished using a Streurs grinding wheel, and prepared for nucleation experiments. Half of the sections were demineralized with 35% phosphoric acid for 15 minutes, then rinsed thoroughly with deionized water. The other half were left untreated. All samples were then sonicated for five minutes to remove excess debris left from cutting and grinding and/or demineralization. Samples were treated with 12.5 μM 8DSS dissolved in 50 mM HEPES buffer solution (pH 7.0), buffer solution only, or left untreated. Samples were then immersed into a simulated body fluid (SBFn), meant to accelerate nucleation of hydroxyapatite (HA) crystals, for 4 hours. Following the nucleation step, samples were immersed in a magnesium and bicarbonate free solution (SBFg) in order to allow the nucleated HA crystals to grow. […] Both solutions were adjusted to pH 6.8. Crystals were grown in order to amplify the nucleated crystals for easy visualization by SEM."}, "[2]": {"test": "HA binding assay (pulldown of fluorescein-labeled peptides, Langmuir isotherm fit)", "settings": "fit of Langmuir equation", "method": "Fluorescein-labeled DSS-containing peptides of various lengths were subjected to pulldown assays as follows: Samples containing varying concentrations of fluorescein-labeled peptide (0-100 μM) and a fixed amount (0.3 mg) of HA nanocrystals with a specific surface area of 100 m^2/g (Berkeley Advanced Biomaterials, Berkeley, Calif.) were prepared. Measurements were taken of the absorbance of the labeled peptide at 488 nm (the peak absorbance of the fluorescein label) before and after exposure to the HA. The amount of peptide bound was calculated by comparing the ratio of the final (Af) and initial (Ai) absorbances to the initial concentration (C0) [Cbound=(Af/Ai)C0]. Plots were generated of the amount of peptide bound per meter squared of HA surface area vs. concentration of unbound peptide at equilibrium. The resulting isotherms were fit to the Langmuir isotherm, x/m=(KANmaxCeq)/(1+KACeq), where x/m represents the molar amount of peptide bound per unit of HA surface area, KA is the affinity constant of the peptide for the HA surface (L/Mol), Nmax is the maximum surface concentration (mol/m^2), and Ceq is the molar concentration of unbound peptide at equilibrium (Calis et al. (1995) Pharm Res., 12: 1072-1076).\nIn order to quantitatively assess the strength of the DSS-HA interaction as well as to determine the roles of peptide length and sequence on binding, fluorescein-labeled, DSS-containing peptides of various lengths were subjected to pulldown assays as described in “Materials and Methods.”\nThe experimental data were fit to the Langmuir isotherm, which describes the binding of molecules to surfaces with the conditions that (1) all binding sites have the same affinity for the peptide and (2) the peptide will form a monolayer on the surface but cannot accumulate to higher levels (Atkins (1994) Physical chemistry. Freeman, New York). The excellent fit of the Langmuir isotherm to the experimental data validates these conditions, and the constants obtained from this analysis were used for comparisons between peptides. As shown in FIG. 7A and summarized in Table 6, both the binding affinity (KA) and the monolayer concentration (NMax) of the various peptides increased with the number of DSS repeats per peptide. Additionally, several variant peptides were tested (FIGS. 7B, 7C, Table 6): a peptide containing a longer side chain at the first position (4ESS (SEQ ID NO:34)), peptides containing a more sterically hindered hydroxyl group at the second and third positions (4DTT (SEQ ID NO:36), 4NTT (SEQ ID NO:38), 4ETT (SEQ ID NO:37)), peptides lacking a charged group at the first position (4NSS (SEQ ID NO:35), 8ASS (SEQ ID NO:26)), and peptides lacking hydroxyl groups at the second and third positions (DAA-8 (SEQ ID NO:40), 8NAA (SEQ ID NO:41))."}, "[3]": {"test": "Binding of labeled peptides to carious lesions in teeth (CLSM)", "design": "species or system human", "settings": "labeled peptide, settings optimized per sample", "text": "Sections of human teeth containing obvious carious lesions, which consist of demineralized enamel, were polished and exposed to 5(6)-carboxyfluorescein-labeled DSS peptides and variants. The sections were washed extensively and imaged by CLSM using blue laser illumination (A=488 nm) and a FITC emission filter, with microscope and camera settings adjusted for each sample to optimize the signal detected from each peptide. The images were examined to identify the relative levels of peptide binding in healthy versus carious tissue. […] Given their ability to remineralize at sites of enamel degradation, they can also be used to initiate remineralization at sites of enamel degradation such as caries or injury sites without causing inappropriate nucleation on healthy tissue surfaces."}, "[4]": {"test": "Nucleation of hydroxyapatite on tooth dentin (SBFn/SBFg, SEM)", "design": "species or system human", "settings": "nondemineralized dentin, 12.5 μM peptide", "method": "as §1"}, "[5]": {"test": "Tissue specific binding of labeled peptides to sections of human teeth (CLSM)", "settings": "5(6)-carboxyfluorescein-labeled peptide, ten minutes", "text": "In order to investigate the tissue specificity of DSS peptide binding to tooth tissue, sections of human teeth were exposed to DSS peptides and variants, then imaged by CLSM. The peptides utilized for these experiments were 8DSS (SEQ ID NO:33), 8ASS (SEQ ID NO:26), 8DAA (SEQ ID NO:40), 8NAA (SEQ ID NO:41), 4DSS (SEQ ID NO:31), 4ESS (SEQ ID NO:34), 4NSS (SEQ ID NO:35), 4DTT (SEQ ID NO:36), 4ETT (SEQ ID NO:37), 4NTT (SEQ ID NO:38), and 6DSS (SEQ ID NO:32). Sagittal sections of human teeth extracted during normal clinical practice were polished and then incubated for ten minutes in a solution of the appropriate 5(6) carboxyfluorescein-labeled peptide (12.5pM) containing 10 mM NaCl and 50 mM HEPES, pH 7.0. Control samples were prepared without peptide. Samples were washed extensively after treatment and imaged by CLSM using blue laser illumination (A=488 nm) and a FITC emission filter, with identical camera and microscope settings for each sample. For each section, multiple scans were collected and assembled in an automated mode to generate panels of images representing an area of 13×13 mm, sufficient in most cases to encompass the whole section. […] Significant binding was also seen to the edges of the pulp cavity."}, "[6]": {"test": "Binding of labeled peptide to sagittally sectioned adult human molars (CLSM, Example 6)", "settings": "fluorescein-labeled peptide, 10 min", "method": "For binding experiments, sagittally sectioned adult human molars were incubated for 10 min in a solution of 12.5 p.M 5(6)-carboxyfluorescein-labeled 6DSS (SEQ ID NO:32) peptide containing 10 mM NaCl and 50 mM HEPES, pH 7.0. Control samples were prepared without peptide. Samples were rinsed after treatment and imaged by confocal laser scanning microscopy (CLSM) with illumination by a blue Kr/Ar laser (λ=488 nm) and a FITC emission filter. To test binding of DSS-containing peptides to biological tissue, sagittally sectioned human teeth were incubated treated with 6DSS (SEQ ID NO:32) (control samples were prepared without peptide), washed, and imaged by CLSM."}}, "data": [{"substance": "DSS DSS DSSDSS DSS DSS DSS DSS (DSSDSSDSSDSSDSSDSSDSSDSS; synthetic calcium-binding peptide 8DSS)", "values": [{"measurement": "crystal growth (nucleation) on enamel", "setting": "[1]", "value": "significant crystal growth"}, {"measurement": "Nmax (maximum monolayer surface concentration)", "setting": "[2]", "value": "8.2 × 10^−8 ± 6 × 10^−9 mol/m^2"}, {"measurement": "KA (binding affinity for HA)", "setting": "[2]; fluorescein-labeled peptide 0-100 μM, 0.3 mg HA nanocrystals", "value": "290,000 ± 70,000 M^−1"}, {"measurement": "specificity of binding to carious lesions versus healthy enamel", "setting": "[3]", "value": "highly specific binding to carious lesions"}, {"measurement": "strength of staining of carious lesions", "setting": "[3]", "value": "exceptionally strong staining of carious lesions"}, {"measurement": "crystal growth (nucleation) on dentin", "setting": "[4]", "value": "the most significant growth"}, {"measurement": "tissue pattern of binding in the tooth section", "setting": "[5]", "value": "bound primarily to the mantle dentin"}, {"measurement": "level of binding (staining) to tooth surfaces", "setting": "[5]; identical settings", "value": "the greatest levels of staining"}, {"measurement": "binding to dentin", "setting": "[6]", "value": "binds tightly to the dentin"}, {"measurement": "binding to enamel", "setting": "[6]", "value": "binding to the enamel almost completely absent"}]}]}
